The text below walks through data of publication doi:10.1101/2024.08.19.608619, “Discovery of potent SARS-CoV-2 nsp3 macrodomain inhibitors uncovers lack of translation to cellular antiviral response” (bioRxiv, 2024).

Experiment in all cases: biochemical
Common to all, as to set-up: In vitro kinase panel profiling, per cent remaining kinase activity at 10 uM

The target in assay [1] is T1, TAK1(h) (Homo sapiens, UniProt O43318).
T1 construct: gene MAP3K7
T1 sequence (O43318 1-606): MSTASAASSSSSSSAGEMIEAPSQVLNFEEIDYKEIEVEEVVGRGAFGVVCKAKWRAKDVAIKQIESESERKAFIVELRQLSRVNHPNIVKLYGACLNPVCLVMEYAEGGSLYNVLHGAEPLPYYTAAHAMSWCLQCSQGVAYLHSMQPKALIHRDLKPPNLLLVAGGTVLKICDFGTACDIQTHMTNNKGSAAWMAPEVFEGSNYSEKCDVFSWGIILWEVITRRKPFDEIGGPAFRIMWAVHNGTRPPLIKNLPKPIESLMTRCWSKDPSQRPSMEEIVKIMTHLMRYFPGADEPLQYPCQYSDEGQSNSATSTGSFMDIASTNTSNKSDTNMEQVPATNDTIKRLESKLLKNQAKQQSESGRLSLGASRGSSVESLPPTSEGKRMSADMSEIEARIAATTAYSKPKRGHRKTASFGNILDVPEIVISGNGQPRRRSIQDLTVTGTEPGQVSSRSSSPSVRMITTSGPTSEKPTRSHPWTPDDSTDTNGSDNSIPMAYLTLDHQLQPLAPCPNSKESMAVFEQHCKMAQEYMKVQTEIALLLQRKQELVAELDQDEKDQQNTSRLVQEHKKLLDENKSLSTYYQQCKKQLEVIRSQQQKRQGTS
Conditions: atp_concentration=45, read-out: % of control remaining. From the text:
(§1) We derisk potential for off-target activity by profiling the compound in a CEREP panel, a standard secondary pharmacology assessment, as well as a kinase panel to derisk a potential hinge-binding motif in our leads, and a PARP panel to derisk activity against human […]. Reassuringly, the compounds are selective, with the only off-targets being moderate human CHRM2 and KOR receptors activity associated with ASAP-0011198.

The target of assay [2] is Plk3(h) (Homo sapiens, UniProt Q9H4B4). The conditions noted are these: atp_concentration=70, read-out: % of control remaining.
Chain of Plk3(h) (Q9H4B4 whole entry): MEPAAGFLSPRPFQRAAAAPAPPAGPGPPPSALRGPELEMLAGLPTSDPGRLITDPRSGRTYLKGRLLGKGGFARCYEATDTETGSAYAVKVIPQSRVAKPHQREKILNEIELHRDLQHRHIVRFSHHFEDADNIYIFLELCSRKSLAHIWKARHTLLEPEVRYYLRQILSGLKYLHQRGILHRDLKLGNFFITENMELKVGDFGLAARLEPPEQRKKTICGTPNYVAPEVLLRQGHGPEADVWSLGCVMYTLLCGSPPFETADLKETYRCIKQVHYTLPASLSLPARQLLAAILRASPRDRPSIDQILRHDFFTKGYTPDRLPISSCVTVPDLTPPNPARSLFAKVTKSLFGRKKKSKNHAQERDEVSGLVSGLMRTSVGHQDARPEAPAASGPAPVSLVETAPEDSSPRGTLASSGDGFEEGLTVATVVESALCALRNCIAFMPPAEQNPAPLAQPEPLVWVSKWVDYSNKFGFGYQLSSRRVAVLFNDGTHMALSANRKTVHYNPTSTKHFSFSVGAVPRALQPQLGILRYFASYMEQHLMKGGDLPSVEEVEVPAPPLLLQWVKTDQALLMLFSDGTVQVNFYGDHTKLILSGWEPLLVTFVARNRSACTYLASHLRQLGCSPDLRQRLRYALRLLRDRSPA
From the text: as §1

The target of assay [3] is T2, NEK2(h) (Homo sapiens, UniProt P51955).
T2 sequence (P51955 1-445): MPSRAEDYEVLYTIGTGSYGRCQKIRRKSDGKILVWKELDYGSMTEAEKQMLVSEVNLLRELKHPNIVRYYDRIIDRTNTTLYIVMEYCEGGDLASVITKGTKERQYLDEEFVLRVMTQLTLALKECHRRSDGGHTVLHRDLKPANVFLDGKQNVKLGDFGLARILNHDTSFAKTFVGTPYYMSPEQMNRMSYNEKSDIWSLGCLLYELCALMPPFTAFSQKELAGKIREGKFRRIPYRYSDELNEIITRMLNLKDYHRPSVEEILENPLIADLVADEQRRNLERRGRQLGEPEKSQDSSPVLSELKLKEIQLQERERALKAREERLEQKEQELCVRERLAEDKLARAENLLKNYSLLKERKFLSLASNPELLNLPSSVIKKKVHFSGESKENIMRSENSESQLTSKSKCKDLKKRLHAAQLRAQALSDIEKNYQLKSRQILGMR
Conditions: atp_concentration=120, read-out: % of control remaining.
From the text: as §1

The target of assay [4] is T3, Aurora-A(h) (Homo sapiens, UniProt O14965).
T3 construct: gene AURKA
T3 sequence (O14965 1-403): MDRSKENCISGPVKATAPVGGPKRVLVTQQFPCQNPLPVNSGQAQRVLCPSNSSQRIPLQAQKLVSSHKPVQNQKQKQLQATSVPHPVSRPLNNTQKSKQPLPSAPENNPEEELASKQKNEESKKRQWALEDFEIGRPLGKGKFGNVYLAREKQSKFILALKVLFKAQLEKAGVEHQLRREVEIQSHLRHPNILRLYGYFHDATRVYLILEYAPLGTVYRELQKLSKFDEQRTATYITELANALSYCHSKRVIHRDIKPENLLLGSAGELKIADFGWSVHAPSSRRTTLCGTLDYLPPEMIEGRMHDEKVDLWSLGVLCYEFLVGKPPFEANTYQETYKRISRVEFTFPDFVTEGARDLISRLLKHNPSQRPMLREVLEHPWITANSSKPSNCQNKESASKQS
The conditions noted are these: atp_concentration=15, read-out: % of control remaining.
From the text: as §1

Assay [5] addresses T4, PDGFRβ(h) (Homo sapiens, UniProt P09619).
T4 construct: gene PDGFRB
Conditions: atp_concentration=200, read-out: % of control remaining.
From the text: as §1

For assay [6], the target named is T5, Pim-1(h) (Homo sapiens, UniProt P11309).
T5 construct: gene PIM1
T5 sequence (P11309 whole entry): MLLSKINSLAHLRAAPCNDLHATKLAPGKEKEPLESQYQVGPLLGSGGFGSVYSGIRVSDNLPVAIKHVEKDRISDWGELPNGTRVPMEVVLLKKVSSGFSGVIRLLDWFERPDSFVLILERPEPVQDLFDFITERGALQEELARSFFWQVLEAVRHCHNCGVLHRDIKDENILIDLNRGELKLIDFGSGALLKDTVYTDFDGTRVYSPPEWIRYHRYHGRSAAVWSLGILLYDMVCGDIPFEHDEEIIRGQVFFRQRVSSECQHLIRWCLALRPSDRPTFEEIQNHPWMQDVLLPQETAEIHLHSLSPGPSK
The conditions noted are these: atp_concentration=90, read-out: % of control remaining.
From the text: as §1

Assay [7] has as its target JAK2(h) (Homo sapiens, UniProt O60674). The conditions noted are these: atp_concentration=45, read-out: % of control remaining.
From the text: as §1

In assay [8] the target is T6, MEK1(h) (Homo sapiens, UniProt Q02750).
T6 construct: gene MAP2K1
T6 sequence (Q02750 whole entry): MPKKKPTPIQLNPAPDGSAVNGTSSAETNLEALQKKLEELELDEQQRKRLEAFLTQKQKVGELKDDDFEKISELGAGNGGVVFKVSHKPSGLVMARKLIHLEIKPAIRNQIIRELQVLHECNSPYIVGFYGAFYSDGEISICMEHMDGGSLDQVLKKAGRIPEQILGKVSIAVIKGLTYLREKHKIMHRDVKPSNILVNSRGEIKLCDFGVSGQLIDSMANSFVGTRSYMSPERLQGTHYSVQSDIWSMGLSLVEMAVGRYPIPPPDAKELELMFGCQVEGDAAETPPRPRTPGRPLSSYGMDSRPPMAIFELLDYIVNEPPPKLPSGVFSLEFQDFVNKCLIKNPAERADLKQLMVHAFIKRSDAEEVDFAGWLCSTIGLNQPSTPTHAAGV
Conditions: atp_concentration=10, read-out: % of control remaining.
From the text: as §1

Assay [9] addresses CDK2/cyclinA(h) (Homo sapiens, UniProt P24941). The conditions noted are these: atp_concentration=45, read-out: % of control remaining.
From the text: as §1

The target in assay [10] is T7, GSK3β(h) (Homo sapiens, UniProt P49841).
T7 construct: gene GSK3B
T7 sequence (P49841 whole entry): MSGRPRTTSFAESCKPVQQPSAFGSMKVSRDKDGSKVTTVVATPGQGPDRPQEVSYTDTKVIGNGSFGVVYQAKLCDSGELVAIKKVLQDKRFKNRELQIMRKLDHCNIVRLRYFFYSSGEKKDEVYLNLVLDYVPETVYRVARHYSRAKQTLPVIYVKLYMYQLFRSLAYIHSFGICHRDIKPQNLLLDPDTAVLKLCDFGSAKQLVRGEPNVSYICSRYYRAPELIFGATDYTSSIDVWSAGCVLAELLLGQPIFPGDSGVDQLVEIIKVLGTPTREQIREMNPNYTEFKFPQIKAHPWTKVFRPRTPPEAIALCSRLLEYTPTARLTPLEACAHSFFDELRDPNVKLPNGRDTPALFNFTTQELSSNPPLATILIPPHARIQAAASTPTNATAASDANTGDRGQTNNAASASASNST
Conditions: atp_concentration=15, read-out: % of control remaining.
From the text: as §1

In assay [11] the target is T8, PI3 Kinase (p110α/p85α)(h) (Homo sapiens, UniProt P42336).
T8 construct: gene PIK3CA
T8 sequence (P42336 whole entry): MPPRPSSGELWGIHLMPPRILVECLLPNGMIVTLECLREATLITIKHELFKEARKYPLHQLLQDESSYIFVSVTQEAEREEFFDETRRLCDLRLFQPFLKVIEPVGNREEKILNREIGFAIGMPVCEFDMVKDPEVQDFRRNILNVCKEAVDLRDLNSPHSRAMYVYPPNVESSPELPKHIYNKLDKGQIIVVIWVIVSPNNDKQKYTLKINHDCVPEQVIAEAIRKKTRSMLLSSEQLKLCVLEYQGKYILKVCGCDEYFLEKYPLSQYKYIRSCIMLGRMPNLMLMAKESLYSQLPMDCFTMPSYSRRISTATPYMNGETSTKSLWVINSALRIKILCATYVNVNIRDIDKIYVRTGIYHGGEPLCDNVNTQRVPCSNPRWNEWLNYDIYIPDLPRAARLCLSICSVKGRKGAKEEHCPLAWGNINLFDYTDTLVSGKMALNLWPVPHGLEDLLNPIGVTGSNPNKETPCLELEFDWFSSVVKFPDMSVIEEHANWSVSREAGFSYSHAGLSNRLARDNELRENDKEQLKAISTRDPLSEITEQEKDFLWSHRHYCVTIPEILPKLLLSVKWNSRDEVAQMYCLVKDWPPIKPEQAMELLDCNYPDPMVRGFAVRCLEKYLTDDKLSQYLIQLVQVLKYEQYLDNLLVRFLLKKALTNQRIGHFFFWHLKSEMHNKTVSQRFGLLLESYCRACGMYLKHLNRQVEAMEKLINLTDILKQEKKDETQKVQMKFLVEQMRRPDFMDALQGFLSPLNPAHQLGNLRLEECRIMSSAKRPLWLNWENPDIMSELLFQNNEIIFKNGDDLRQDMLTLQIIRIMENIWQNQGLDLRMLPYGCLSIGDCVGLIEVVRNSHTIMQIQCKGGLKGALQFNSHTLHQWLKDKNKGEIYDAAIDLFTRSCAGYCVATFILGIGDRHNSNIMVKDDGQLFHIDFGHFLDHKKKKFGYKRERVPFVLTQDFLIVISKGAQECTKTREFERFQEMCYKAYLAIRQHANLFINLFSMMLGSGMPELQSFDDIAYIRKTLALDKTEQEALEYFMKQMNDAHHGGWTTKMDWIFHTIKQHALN
T8 sequence (P27986 whole entry partner): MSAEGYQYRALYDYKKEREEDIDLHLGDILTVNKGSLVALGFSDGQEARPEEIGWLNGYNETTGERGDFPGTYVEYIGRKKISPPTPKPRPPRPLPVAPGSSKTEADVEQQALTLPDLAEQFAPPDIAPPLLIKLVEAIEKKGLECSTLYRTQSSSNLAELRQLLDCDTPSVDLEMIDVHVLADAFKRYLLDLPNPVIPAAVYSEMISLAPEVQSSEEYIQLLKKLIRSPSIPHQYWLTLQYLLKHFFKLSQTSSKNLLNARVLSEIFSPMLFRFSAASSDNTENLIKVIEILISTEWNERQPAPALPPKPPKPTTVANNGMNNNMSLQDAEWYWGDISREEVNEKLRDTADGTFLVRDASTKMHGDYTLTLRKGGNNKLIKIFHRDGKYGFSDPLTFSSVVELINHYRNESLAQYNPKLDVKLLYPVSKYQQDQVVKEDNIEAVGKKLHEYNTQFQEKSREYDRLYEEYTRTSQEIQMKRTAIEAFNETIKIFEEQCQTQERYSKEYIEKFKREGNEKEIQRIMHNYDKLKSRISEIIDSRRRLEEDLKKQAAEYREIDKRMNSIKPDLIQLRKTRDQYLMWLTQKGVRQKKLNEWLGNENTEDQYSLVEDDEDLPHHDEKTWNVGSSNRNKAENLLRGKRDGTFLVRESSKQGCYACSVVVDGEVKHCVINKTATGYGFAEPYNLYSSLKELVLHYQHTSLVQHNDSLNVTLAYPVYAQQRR
The conditions noted are these: atp_concentration=200, read-out: % of control remaining.
From the text: as §1

Structures are written as SMILES. Where two headings read alike, the source gives them in different places.

T4 sequence (P09619 whole entry): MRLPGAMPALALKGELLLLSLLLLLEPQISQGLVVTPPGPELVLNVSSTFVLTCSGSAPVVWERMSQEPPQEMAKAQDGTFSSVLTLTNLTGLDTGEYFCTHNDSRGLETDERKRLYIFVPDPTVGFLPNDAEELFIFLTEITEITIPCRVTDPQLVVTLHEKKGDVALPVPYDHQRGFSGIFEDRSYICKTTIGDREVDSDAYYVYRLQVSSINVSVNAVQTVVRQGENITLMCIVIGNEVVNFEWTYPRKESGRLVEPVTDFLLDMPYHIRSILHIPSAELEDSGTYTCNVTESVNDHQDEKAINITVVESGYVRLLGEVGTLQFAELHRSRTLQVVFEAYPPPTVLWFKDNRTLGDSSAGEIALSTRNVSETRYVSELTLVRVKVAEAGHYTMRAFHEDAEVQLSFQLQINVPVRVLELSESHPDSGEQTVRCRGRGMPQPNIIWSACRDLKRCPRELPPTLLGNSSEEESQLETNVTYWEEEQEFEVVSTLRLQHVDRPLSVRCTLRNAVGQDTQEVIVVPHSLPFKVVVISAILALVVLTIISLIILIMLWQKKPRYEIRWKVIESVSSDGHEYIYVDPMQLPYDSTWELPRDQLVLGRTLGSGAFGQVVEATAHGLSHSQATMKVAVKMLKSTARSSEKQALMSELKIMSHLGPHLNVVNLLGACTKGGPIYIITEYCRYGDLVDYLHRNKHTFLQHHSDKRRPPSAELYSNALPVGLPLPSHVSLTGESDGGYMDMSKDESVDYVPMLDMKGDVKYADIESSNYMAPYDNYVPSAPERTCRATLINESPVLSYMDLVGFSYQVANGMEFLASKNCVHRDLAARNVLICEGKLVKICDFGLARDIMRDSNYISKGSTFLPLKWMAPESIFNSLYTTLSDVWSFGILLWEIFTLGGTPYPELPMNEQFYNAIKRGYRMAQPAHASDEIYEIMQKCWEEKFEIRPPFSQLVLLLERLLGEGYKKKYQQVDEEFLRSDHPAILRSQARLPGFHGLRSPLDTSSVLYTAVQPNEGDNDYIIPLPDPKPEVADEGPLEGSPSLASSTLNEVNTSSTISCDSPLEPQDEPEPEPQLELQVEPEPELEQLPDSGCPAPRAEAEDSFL

`C[C@H](C(=O)O)[C@@H](NC(=O)c1ncnc2[nH]ccc12)c1ccc(Br)cc1` [ASAP-0014722]: the remaining activity at 10 µM in assay [1] (batch_name=ASAP-0014722-002) was 95%; in [2] (batch_name=ASAP-0014722-002) it was 98%; in assay [3] (batch_name=ASAP-0014722-002) it was 101%; in [4] (batch_name=ASAP-0014722-002), 72%; in assay [5] (batch_name=ASAP-0014722-002), 110%; in assay [6] (batch_name=ASAP-0014722-002), 95%. Besides, the remaining activity at 10 µM was 99% in assay [7] (batch_name=ASAP-0014722-002); 89% in assay [8] (batch_name=ASAP-0014722-002); 102% in assay [9] (batch_name=ASAP-0014722-002); 93% in assay [10] (batch_name=ASAP-0014722-002); 100% in [11] (batch_name=ASAP-0014722-002).
With `COc1ccc([C@H](Cc2nnn[nH]2)NC(=O)c2ncnc3[nH]ccc23)cc1` [ASAP-0015381], the remaining activity at 10 µM in [1] (batch_name=ASAP-0015381-001) was found to be 99%; in assay [2] (batch_name=ASAP-0015381-001) it was 102%; in assay [3] (batch_name=ASAP-0015381-001), 106%; in assay [4] (batch_name=ASAP-0015381-001), 84%; in assay [5] (batch_name=ASAP-0015381-001) it was 103%; in assay [6] (batch_name=ASAP-0015381-001) it was 99%. The remaining activity at 10 µM in assay [7] (batch_name=ASAP-0015381-001) is 116%; in [8] (batch_name=ASAP-0015381-001), 100%; in assay [9] (batch_name=ASAP-0015381-001), 113%; in [10] (batch_name=ASAP-0015381-001) it was 90%; in assay [11] (batch_name=ASAP-0015381-001), 99%.
